Tests used:
[1] = test system: HeLa cells; settings: HeLa, data not shown
Procedure: HeLa cells were plated at a density of 250,000-300,000 cells/mL. After 24 hr cells, the cells were irradiated in a dose dependent manner (0-4 Gy) using a ^137Cs gamma source. After treatment, the cells were trypsinized and plated at a density between 300-4000 cells in 60 mm dishes. Cells were allowed to grow colonies (1 colony≧50 cells) for 10-14 days, stained with 0.25% crystal violet, and manually counted to measure the number of colonies. Survival fractions were normalized against positive controls (colony formation with no radiation) and plotted as the log percent survival versus dose of radiation. Each experiment was performed an average of four (4) times with cells propagated on several different days.
In this case, we measured the effects of combining these (phosphine)gold(I) indoles with ionizing radiation (IR), a widely used therapy used to treat solid tumors. […] After this time frame, media containing the (phosphine)gold(I) indole was removed and replaced with fresh media. The cells were then irradiated in a dose-dependent fashion from 0 to 6 Gy. Cell viability was assessed using a clonogenic assay that measures colony formation and thus accurately defines the cytotoxic effects of IR exposure. […] The initial linear phase is particularly important as this reflects repair of non-lethal damage inflicted by clinically-relevant doses of IR (˜2 Gy).

[2] = test system: CEM-C7; experiment: Cell proliferation / cytotoxicity assay; type: cell-based; settings: for IC50: cell viability, cell-titer blue, up to 48 hours
Procedure: (§1) HeLa, MCF-7, HCT-116, and CEM-C7 were obtained from the American Type Culture Collection (Manassas, Va., USA). All adherent cell lines were maintained in Dulbecco's modified Eagle's medium (Mediatech) with 100 U/ml penicillin (Invitrogen), 100 μg/ml streptomycin (Invitrogen), 0.25 μg/ml amphotericin B (Invitrogen), and 10% fetal bovine serum (USA Scientific) and incubated at 37° C. with 5% CO2. CEM cells were maintained in RPMI-1640 media supplemented with 100 U/ml penicillin, 100 μg/ml streptomycin, 0.25 μg/ml amphotericin B, and 10% fetal bovine serum and incubated at 37° C. with […].
(§2) Cells were plated at a density of 7,000-13,000/well in 200 μl of media overnight in a 96-well plate. Each (phosphine)gold(I)-indole was added to wells in a dose-dependent manner (0.01-100 μM). Cells were treated with compounds for variable time periods (8-48 hours). With adherent cell lines, medium was removed from the wells and then 100 μl of fresh medium was added into each well followed by the addition of 20 μl of cell titer-blue reagent (Promega). Cells were incubated with reagent for 1-4 hrs and the optical density of samples was read at 560 nm using a microplate reader. The background absorbance of dye with media was subtracted from each sample. Cell viability was then normalized against cells treated with DMSO. IC50 values were obtained using a fit of the data to Equation 1: Y=100%/[1+(IC50/Inhibitor)] (1)
(§3) where y is the fraction of viable cells, IC50 is the concentration of inhibitor that inhibits 50% cell growth, and Inhibitor is the concentration of compound tested.
(§4) The cellular effects of these (phosphine)gold(I) indoles were tested against several cancer cell lines including HeLa (cervical cancer), MCF-7 (breast cancer), HCT-116 (colon cancer), and CEM-C7 (leukemia). The dose-dependency of each modified indole on cell viability was assessed using a cell-titer blue assay as previously described. In these experiments, cells were exposed to variable concentrations of each (phosphine)gold(I) indole (0.01-100 μM) for up to 48 hours and then assessed for viability.
Defining this mechanism of cell death is important as necrosis can cause various side-effects including septic shock and kidney failure that can obviously compromise patient health.

[3] = test system: MCF-7; experiment: Cell proliferation assay (cell-titer blue); type: cell-based; settings: cell viability, up to 48 hours
Procedure: as §1, §2, §3, §4

[4] = test system: HeLa; experiment: Cell proliferation assay (cell-titer blue); type: cell-based; settings: for IC50: cell viability, cell-titer blue, up to 48 hours
Procedure: as §1, §2, §3, §4

[5] = test system: HCT-116; experiment: Cell proliferation assay (cell-titer blue); type: cell-based; settings: cell viability, up to 48 hours, read-out: IC50 HCT116
Procedure: as §1, §2, §3, §4

[6] = target: BSA (Bos taurus, UniProt P02769); experiment: Reactivity of Au(I)-compounds with BSA thiol (DTNB -SH titer); parameters: species or system bovine; settings: 120 μM compound, Au(I)/BSA ratios up to 4:1, one hour, 37° C., PBS
Chain of BSA (P02769 25-607): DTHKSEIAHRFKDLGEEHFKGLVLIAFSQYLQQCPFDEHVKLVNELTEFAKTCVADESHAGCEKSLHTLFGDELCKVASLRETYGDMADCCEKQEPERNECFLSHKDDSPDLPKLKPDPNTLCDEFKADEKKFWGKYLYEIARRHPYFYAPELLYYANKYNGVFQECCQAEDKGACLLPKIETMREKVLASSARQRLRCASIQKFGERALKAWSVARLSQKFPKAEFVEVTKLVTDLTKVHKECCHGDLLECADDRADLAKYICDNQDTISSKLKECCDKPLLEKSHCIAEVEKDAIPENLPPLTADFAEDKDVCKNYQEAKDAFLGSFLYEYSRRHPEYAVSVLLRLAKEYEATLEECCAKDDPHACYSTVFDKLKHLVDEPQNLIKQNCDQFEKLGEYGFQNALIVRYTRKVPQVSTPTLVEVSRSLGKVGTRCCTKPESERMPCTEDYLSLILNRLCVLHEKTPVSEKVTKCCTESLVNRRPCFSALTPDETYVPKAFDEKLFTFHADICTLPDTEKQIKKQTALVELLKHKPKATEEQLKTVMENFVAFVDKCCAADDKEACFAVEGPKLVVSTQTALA
Procedure: PBS was used as the reaction buffer.
We tested the ability of various Au(I)-complexes to non-selectively react with BSA. […] P2 resin was effective in retaining Au(I)-containing compounds including compound 3 and compound 4. However, BSA was not retained in the resin as >95% of the BSA loaded into the Penefsky column is recovered in the eluant. […] Values obtained from reactions containing BSA incubated with the various Au(I) complexes were compared to identical reactions containing BSA alone and eluted through Penefsky columns.

| SMILES | enhancement of the cell killing effects of IR [1] | IC50 [2] | IC50 [3] | IC50 [4] | IC50 [5] | mechanism of cell death (propidium iodide uptake) ([2]; CEM-C7 cells) | LD50 ([2]; cytotoxic effect, leukemia cell line CEM-C7) | reactivity with BSA (relative thiol content, -SH titer) [6] | anti-cancer (cytostatic or cytotoxic) effects ([4]; up to the highest concentration of 100 μM) |
| --- | --- | --- | --- | --- | --- | --- | --- | --- | --- |
| Cn1ccc2c[c]([Au-][P+](c3ccccc3-c3ccccc3)(C3CCCCC3)C3CCCCC3)ccc21 [Compound 7, 5-{[1,1′-biphenyl]-2-yldicyclohexylphosphine aurate(I)}-1-methyl-1H-indole] | do not enhance the cell killing effects of IR | 1430 nM | 3250 nM | 460 nM | 380 nM | – | – | – | – |
| CC(C)(C)OC(=O)n1ccc2c[c]([Au-][P+](c3ccccc3-c3ccccc3)(C3CCCCC3)C3CCCCC3)ccc21 [Compound 5, 5-{[1,1′-biphenyl]-2-yldicyclohexylphosphine aurate(I)}-tert-butyl H-indole-1-carboxylate] | – | 2100 nM | 2300 nM | 2400 nM | 3400 nM | – | – | – | – |
| [Au+].[Br-].c1ccc(P(c2ccccc2)c2ccccc2)cc1 [BrAuPPh3, reference compound] | – | – | – | – | – | causes necrosis | 0.22 ± 0.05 µM | facile interactions | does not produce significant cytostatic or cytotoxic effects |
| CC(C)(C)C(=O)OCn1ccc2c[c]([Au-][P+](c3ccccc3-c3ccccc3)(C3CCCCC3)C3CCCCC3)ccc21 [Compound 6, 5-{[1,1′-biphenyl]-2-yldicyclohexylphosphine aurate(I)}-(1H-indol-1-yl)methyl pivalate] | do not enhance the cell killing effects of IR | 420 nM | 960 nM | 660 nM | 1800 nM | – | – | – | – |

Source: patent US9821173B2, “Anti-cancer agents and methods of use” (Case Western Reserve University, priority 2013, dated 2017)
